Data as given in patent US20080292584A1 (priority 2005, published 2008).
Where “and” joins values, the source holds several entries; their conditions need not be identical. Identical values can stand only once. Like-named read-outs stand apart in the source and are kept apart here.

Assays:
human CYP1A2 = target: T1, human CYP1A2 (Homo sapiens, UniProt P05177); experiment: Metabolism of metaxalone by expressed recombinant human CYP1A2 (disappearance of metaxalone, HPLC; Example 1); details: 30 min;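 further: recombinant CYP1A2 microsomes (10 pmol P450) in Tris buffer containing 1% methanol, reactions driven by an NADPH regenerating system, 0.5 mL incubations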
T1 sequence (P05177 2-516 limits assumed): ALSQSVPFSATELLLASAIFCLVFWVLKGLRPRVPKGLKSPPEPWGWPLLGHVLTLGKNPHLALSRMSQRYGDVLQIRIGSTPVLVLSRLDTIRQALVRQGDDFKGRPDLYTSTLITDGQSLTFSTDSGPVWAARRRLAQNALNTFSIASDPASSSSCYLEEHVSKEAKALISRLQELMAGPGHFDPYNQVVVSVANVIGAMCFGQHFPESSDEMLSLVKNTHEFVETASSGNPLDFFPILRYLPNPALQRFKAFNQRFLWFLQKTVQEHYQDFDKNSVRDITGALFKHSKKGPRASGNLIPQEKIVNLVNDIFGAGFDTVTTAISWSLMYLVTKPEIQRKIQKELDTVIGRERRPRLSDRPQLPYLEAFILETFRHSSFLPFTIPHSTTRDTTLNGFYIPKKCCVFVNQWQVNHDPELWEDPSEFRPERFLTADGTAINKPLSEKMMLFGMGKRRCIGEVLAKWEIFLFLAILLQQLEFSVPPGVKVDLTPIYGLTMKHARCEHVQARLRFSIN
Experimental: Commercially available microsomes from baculovirus-infected insect cells containing singly-expressed recombinant wild-type (*1 allele) human CYP enzymes and cDNA-expressed human cytochrome p450 oxidoreductase [BD SUPERSOMES Enzymes; BD Biosciences Discovery Labware (Woburn, Mass.)] were used.
After a 5-minute pre-incubation, an NADPH regenerating system (NRS) was added to the incubation mixtures to initiate reactions, with a final incubation volume of 0.5 mL. Incubations were continued for 30 minutes, and then terminated, except for those for CYP2C19, which were incubated for 36 minutes prior to termination.
Matrix controls were performed to determine the background signal from the matrix components (microsomes (10 pmol p450), 01N Tris buffer, NRS, and 1% methanol). […] After a 5-minute pre-incubation, 2% sodium bicarbonate solution was added to the incubation mixtures. Incubation was for 30 minutes at a final volume of 0.5 mL. Matrix and metabolic negative controls were terminated by adding an equal volume of methanol. […] Analysis of samples was subsequent to storage at −70° C.

CYP1A2 = target: T2, CYP1A2 (Homo sapiens, UniProt P05177); details: both, pH 7.4; for Mean Conc.: 60 min; for % Turnover Mean: microsomes, 1 h
T2 sequence (P05177 1-516): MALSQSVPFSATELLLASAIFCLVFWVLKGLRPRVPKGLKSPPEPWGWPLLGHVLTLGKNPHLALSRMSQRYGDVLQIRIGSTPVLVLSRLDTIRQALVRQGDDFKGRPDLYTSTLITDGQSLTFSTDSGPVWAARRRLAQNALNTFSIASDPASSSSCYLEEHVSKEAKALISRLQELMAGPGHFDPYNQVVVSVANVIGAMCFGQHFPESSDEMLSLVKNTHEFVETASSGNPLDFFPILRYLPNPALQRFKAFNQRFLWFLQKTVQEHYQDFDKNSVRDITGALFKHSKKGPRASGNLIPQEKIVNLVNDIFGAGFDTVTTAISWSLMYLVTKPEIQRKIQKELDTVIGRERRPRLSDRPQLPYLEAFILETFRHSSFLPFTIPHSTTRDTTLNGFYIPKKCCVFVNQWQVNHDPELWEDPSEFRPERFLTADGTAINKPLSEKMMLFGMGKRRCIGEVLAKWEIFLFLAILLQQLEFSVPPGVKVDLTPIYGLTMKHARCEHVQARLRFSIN
Experimental: (§2) Human liver microsomes pooled from 15 individuals (male and female) (Pool HMMC-PL020; CellzDirect, Inc., In Vitro Products and Services Division) were used in some experiments of this study.
(§3) % Turnover=100−{[TA(final)]/[mean of TA(0 min)]}×100,
(§4) % Inhibition of Turnover=100{1−([TA(0 min)]−[TA(final-inhibitor)])/([TA(0 min)]−[TA(final-no inhibitor)])}.
(§5) The inhibitors or vehicle control were incubated with the pooled human liver microsomes (1 mg/mL) and NADPH (1 mM) in 0.1 M phosphate buffer, pH 7.4. […] Incubations were conducted in triplicate and terminated by addition of organic solvent. Samples were extracted and analyzed by LC-MS/MS as described above.

CYP2C8 = target: T3, CYP2C8 (Homo sapiens, UniProt P10632); details: both, pH 7.4; for Mean Conc.: 60 min; for % Turnover Mean: microsomes, 1 h
T3 sequence (P10632 1-490): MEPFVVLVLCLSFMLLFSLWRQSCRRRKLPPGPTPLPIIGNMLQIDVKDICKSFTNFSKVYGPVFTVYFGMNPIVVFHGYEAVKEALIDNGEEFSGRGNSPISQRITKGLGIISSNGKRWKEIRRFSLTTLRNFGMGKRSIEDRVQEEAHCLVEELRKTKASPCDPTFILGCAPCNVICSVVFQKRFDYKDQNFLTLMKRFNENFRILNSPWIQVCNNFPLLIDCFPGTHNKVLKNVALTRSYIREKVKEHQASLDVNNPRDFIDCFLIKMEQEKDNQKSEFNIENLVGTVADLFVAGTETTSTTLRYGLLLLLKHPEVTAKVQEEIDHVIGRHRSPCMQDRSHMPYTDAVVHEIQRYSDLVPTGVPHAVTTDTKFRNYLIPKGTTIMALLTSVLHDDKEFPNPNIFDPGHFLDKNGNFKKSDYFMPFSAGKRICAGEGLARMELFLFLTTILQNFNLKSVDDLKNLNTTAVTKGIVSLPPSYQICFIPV
Experimental: as §2, §3, §4, §5

CYP2D6 = CYP2D6 (Homo sapiens, UniProt P10635); details: both, pH 7.4; for Mean Conc.: 60 min; for % Turnover Mean: microsomes, 1 h
CYP2D6, sequence (P10635 whole entry): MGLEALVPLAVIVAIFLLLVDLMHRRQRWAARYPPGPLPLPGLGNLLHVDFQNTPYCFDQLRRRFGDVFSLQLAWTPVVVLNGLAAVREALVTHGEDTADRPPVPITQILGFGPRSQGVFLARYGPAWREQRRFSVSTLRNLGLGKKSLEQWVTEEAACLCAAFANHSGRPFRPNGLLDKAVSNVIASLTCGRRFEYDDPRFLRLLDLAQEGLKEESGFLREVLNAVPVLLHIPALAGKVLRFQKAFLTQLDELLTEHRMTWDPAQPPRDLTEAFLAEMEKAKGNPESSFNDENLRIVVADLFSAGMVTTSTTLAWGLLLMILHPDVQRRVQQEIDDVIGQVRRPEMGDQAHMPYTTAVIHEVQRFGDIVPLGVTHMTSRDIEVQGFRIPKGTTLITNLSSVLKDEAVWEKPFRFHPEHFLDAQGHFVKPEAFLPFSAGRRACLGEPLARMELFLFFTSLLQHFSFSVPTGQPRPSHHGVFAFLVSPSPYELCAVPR
Experimental: as §2, §3, §4, §5

CYP2A6 = experiment: Chemical inhibition of metaxalone turnover in human liver microsomes, CYP2A6 inhibitor pilocarpine; details: 1 mg/mL HLM, 60 min, with pilocarpine; for % Turnover / % inhibition of turnover / Conc.: single replicates
Experimental: as §2, §3, §4, §5

CYP3A4 = CYP3A4 (Homo sapiens, UniProt P08684); details: for Percent of VC / Specific Activity Mean ± SD: human, 10 min
CYP3A4, sequence (P08684 whole entry): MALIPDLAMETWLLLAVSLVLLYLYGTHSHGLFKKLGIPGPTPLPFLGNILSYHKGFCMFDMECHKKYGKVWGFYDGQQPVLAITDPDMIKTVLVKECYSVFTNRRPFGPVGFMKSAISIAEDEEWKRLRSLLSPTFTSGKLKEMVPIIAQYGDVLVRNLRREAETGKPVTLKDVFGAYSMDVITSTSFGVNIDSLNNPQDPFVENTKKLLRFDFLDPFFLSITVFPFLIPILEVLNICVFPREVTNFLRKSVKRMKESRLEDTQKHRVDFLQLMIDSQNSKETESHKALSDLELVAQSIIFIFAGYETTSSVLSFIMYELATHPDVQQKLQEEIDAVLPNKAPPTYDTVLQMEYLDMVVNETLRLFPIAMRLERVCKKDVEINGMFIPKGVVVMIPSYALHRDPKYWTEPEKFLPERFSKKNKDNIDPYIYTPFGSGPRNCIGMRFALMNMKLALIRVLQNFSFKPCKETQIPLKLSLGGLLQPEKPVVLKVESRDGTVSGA
Experimental: All other incubations were for 30 minutes.
(§1) Four replicates were performed.
as §1
Two replicates were performed.

With `Cc1cc(C)cc(OCC2CNC(=O)O2)c1` (centres unmarked) [metaxalone, 5-[(3,5-dimethylphenoxy)methyl]-2-oxazolidinone] the “Metaxalone Present Adjusted Individual” value (human CYP1A2; metaxalone 0.5 μM) was 0.302 µM and 0.440 µM and 0.315 µM, the “Metaxalone Present Adjusted Mean ± SD” value (human CYP1A2; metaxalone 0.5 μM) was 0.352 ± 0.0761 µM and the “Metaxalone Present Raw” value (human CYP1A2; metaxalone 0.5 μM) was 0.1509 µM and 0.2198 µM and 0.1573 µM. The “Percent of Metabolic Negative Control Individual” value (human CYP1A2; metaxalone 0.5 μM) was 77.1% and 112% and 80.4%, the “Percent of Metabolic Negative Control Mean ± SD” value (human CYP1A2; metaxalone 0.5 μM) was 89.9 ± 19.4% and the “Metaxalone Present Adjusted Individual” value (human CYP1A2; metaxalone 2.5 μM) was 1.05 µM and 1.06 µM and 1.08 µM. For the same compound, the “Metaxalone Present Adjusted Mean ± SD” value (human CYP1A2; metaxalone 2.5 μM) was 1.07 ± 0.0167 µM, the “Metaxalone Present Raw” value (human CYP1A2; metaxalone 2.5 μM) was 0.527 µM and 0.5291 µM and 0.5423 µM and the “Percent of Metabolic Negative Control Individual” value (human CYP1A2; metaxalone 2.5 μM) was 79.5% and 79.8% and 81.8%. For the same compound, the “Percent of Metabolic Negative Control Mean ± SD” value (human CYP1A2; metaxalone 2.5 μM) was 80.4 ± 1.26%, the “Metaxalone Present Adjusted Individual” value (human CYP1A2; metaxalone 25 μM) was 16.4 μM (2×) and 17.0 μM and the “Metaxalone Present Adjusted Mean ± SD” value (human CYP1A2; metaxalone 25 μM) was 16.6 ± 0.337 µM. For the same compound, the “Metaxalone Present Raw” value (human CYP1A2; metaxalone 25 μM) was 8.205 µM and 8.192 µM and 8.49 µM, the “Percent of Metabolic Negative Control Individual” value (human CYP1A2; metaxalone 25 μM) was 82.8% and 82.6% and 85.6% and the “Percent of Metabolic Negative Control Mean ± SD” value (human CYP1A2; metaxalone 25 μM) was 83.7 ± 1.70%. The “Mean Conc.” value (CYP1A2; 0.75 μM) was 0.797 µM, the “Mean Conc.” value (CYP1A2; 7.5 μM) was 8.11 µM and the “% Turnover Mean” value (CYP1A2; 0.75 μM) was −3.29%. The “% Turnover Mean” value (CYP1A2; 7.5 μM) was 4.77%, the “Mean Conc.” value (CYP2C8; 0.75 μM) was 0.719 µM and the “Mean Conc.” value (CYP2C8; 7.5 μM) was 8.19 µM. For the same compound, the “% Turnover Mean” value (CYP2C8; 0.75 μM) was 6.78%, the “% Turnover Mean” value (CYP2C8; 7.5 μM) was 3.77% and the “Mean Conc.” value (CYP2D6; 0.75 μM) was 0.769 µM. For the same compound, the “Mean Conc.” value (CYP2D6; 7.5 μM) was 7.66 µM, the “% Turnover Mean” value (CYP2D6; 0.75 μM) was 0.376% and the “% Turnover Mean” value (CYP2D6; 7.5 μM) was 10.0%. For the same compound, the “% Turnover Mean” value (CYP2A6; 0.75 μM metaxalone) was 16.0%, the “% inhibition of turnover Mean” value (CYP2A6; 0.75 μM metaxalone) was 46.2% and the “Mean Conc.” value (CYP2A6; 0.75 μM metaxalone) was 0.648 µM. The “% Turnover” value (CYP2A6; 0.75 μM metaxalone) was 13.9% and 14.7% and 19.4%, the “% inhibition of turnover” value (CYP2A6; 0.75 μM metaxalone) was 53.2% and 50.6% and 34.9% and the “Conc.” value (CYP2A6; 0.75 μM metaxalone) was 0.664 µM and 0.658 µM and 0.622 µM. The “% Turnover Mean” value (CYP2A6; 7.5 μM metaxalone) was 12.1%, the “% inhibition of turnover Mean” value (CYP2A6; 7.5 μM metaxalone) was 50.8% and the “Mean Conc.” value (CYP2A6; 7.5 μM metaxalone) was 7.48 µM. The “% Turnover” value (CYP2A6; 7.5 μM metaxalone) was 8.8% and 14.5% and 13.0%, the “% inhibition of turnover” value (CYP2A6; 7.5 μM metaxalone) was 64.2% and 41.2% and 47.1% and the “Conc.” value (CYP2A6; 7.5 μM metaxalone) was 7.76 µM and 7.28 µM and 7.41 µM. The Inhibitor (CYP3A4) was “+”, the “Percent of VC” value (CYP3A4; 0.3 μM) was 87.1% and the “Specific Activity Mean ± SD” value (CYP3A4; 0.3 μM) was 517 ± 10.4 pmol/min/mg protein. For the same compound, the “Percent of VC” value (CYP3A4; 1 μM) was 88.1%, the “Specific Activity Mean ± SD” value (CYP3A4; 1 μM) was 523 ± 2.83 pmol/min/mg protein and the “Percent of VC” value (CYP3A4; 3 μM) was 90.0%. The “Specific Activity Mean ± SD” value (CYP3A4; 3 μM) was 534 ± 3.36 pmol/min/mg protein, the “Percent of VC” value (CYP3A4; 30 μM) was 85.2% and the “Specific Activity Mean ± SD” value (CYP3A4; 30 μM) was 506 ± 29.6 pmol/min/mg protein. For the same compound, the “Percent of VC” value (CYP3A4; 100 μM) was 80.3% and the “Specific Activity Mean ± SD” value (CYP3A4; 100 μM) was 477 ± 36.3 pmol/min/mg protein.
